Experimental data as given in patent US20110275693A1, “Pharmaceutical Compositions Comprising 2-Oxo-1-Pyrrolidine Derivatives” (UCB PHARMA, S.A., priority 2009, published 2011).

Columns and labels:
rat hippocampal slices [1] = assay: Epileptiform responses in hippocampal slices (field potentials, CA3 area); format: cell-based, Sprague-Dawley rats; parameters: rate of spontaneous field bursting in HKLCF: dose or concentration left out as unconfirmed; settings: for evoked epileptiform responses (PS1 amplitude, repetitive PSs) in HKLCF: CA3 area, fimbrial stimulation, high-K+/low-Ca2+ fluid
Experimental: The effect of brivaracetam on epileptiform responses induced by high-K+/low-Ca2+ concentrations or by bicuculline was examined in transverse hippocampal slices prepared from Sprague-Dawley rats according to previously reported standard procedures. The epileptiform responses were induced by passing from a normal perfusion of artificial cerebrospinal fluid (ACSF) (K+3 mM; Ca2+2.4 mM) to either high-K+/low-Ca2+ fluid (HKLCF) (K+7.5 mM; Ca2+0.5 mM) or to […] bicuculline methiodide (BMI)-containing ACSF.
Extracellular field potentials (FPs) were recorded in the CA3 area of the slices with 2 M NaCl-filled glass microelectrodes. The evoked FPs were recorded at 10-min intervals in response to fimbrial stimulation with constant current rectangular pulses that elicit a single population spike (PS) of 50-75% of the maximal amplitude when the slice is in ACSF. In the HKLCF model, 2 min of spontaneous activity were also recorded, in the middle of each 10-min interval between the recordings of evoked responses.
Either brivaracetam or levetiracetam was added to the bathing fluid of the slices 20 min before shifting from ACSF to either HKLCF or […] BMI-containing ACSF, and was kept in the perfusion fluid throughout the experiment.

amygdala-kindled rats = assay: Fully amygdala-kindled rats; format: in vivo, rat; settings: for dose significantly reducing the after-discharge duration: 212.3 is the highest brivaracetam dose tested
[2] = test system: genetically sound-sensitive male mice; assay: Audiogenic seizures in mice; format: in vivo; settings: audiogenic seizure-susceptible mice; brivaracetam i.p. 30 min, levetiracetam i.p. 60 min pretreatment
Experimental: Audiogenic seizures in mice: Genetically sound-sensitive male mice (16-28 g; n=10 per group), responding with wild running, clonic and tonic convulsions to an acoustic stimulation, were used. Audiogenic seizures were induced by an acoustic stimulus (90 dB, 10-20 kHz) applied for 30 s. The mice were pretreated with either saline, brivaracetam (i.p., 30 min) or levetiracetam (i.p., 60 min), and the proportion of mice protected against clonic convulsions was used as the end point to assess anticonvulsant activity.

rat hippocampal slices [3] = settings: cited from earlier work
epilepsy patients = settings: adult patients, adjunctive treatment; cited from earlier work
[4] = test system: pentylenetetrazol-induced clonic convulsions in mice; assay: Chemically induced seizures in mice (pentylenetetrazol); format: in vivo; settings: i.p. 30 min before seizure induction, higher ED50 values than audiogenic model
Experimental: The dose was selected based on dose-effect curves in saline-treated animals as the convulsive dose inducing clonic convulsions of all four extremities in 97% of the animals. Immediately after administration of the chemoconvulsant, the mice were placed individually in small plastic cages (25 13 8 cm) and observed for the presence of clonic convulsions in all four extremities, for 60 min. The occurrence of tonic convulsions (hindlimb extension) and mortality was also recorded during this interval. The proportion of mice protected against clonic convulsions was calculated and used as the end point for anticonvulsant activity.

GAERS rats = assay: Spontaneous SWDs in GAERS rats; format: in vivo, rat
corneally kindled mice = assay: Corneal kindling of mice; format: in vivo
[5] = test system: patients with post-herpetic neuralgia; settings: cited from earlier work

Row | SMILES | evoked epileptiform responses (PS1 amplitude, repetitive PSs) in HKLCF (rat hippocampal slices [1]) | dose from which significant suppression in motor-seizure severity is induced (amygdala-kindled rats) | dose significantly reducing the after-discharge duration (amygdala-kindled rats) | protection against the expression of clonic convulsions [2] | epileptiform responses induced by high-K+/low-Ca2+ concentrations in the perfusion fluid and by bicuculline (rat hippocampal slices [3]) | efficacy in the treatment of epilepsy (epilepsy patients) | rate of spontaneous field bursting in HKLCF (rat hippocampal slices [1]) | protection against clonic convulsions induced by pentylenetetrazol [4] | dose from which spontaneous SWDs are significantly suppressed (GAERS rats) | dose giving complete inhibition of spontaneous SWDs (GAERS rats; highest dose tested) | incidence of generalized motor seizures after termination of treatment (corneally kindled mice; continued corneal stimulations, group previously treated with the highest dose) | incidence of generalized motor seizures (corneally kindled mice; pretreatment during corneal kindling of mice) | efficacy in the treatment of post-herpetic neuralgia [5]
1 | CC[C@@H](C(N)=O)N1CCCC1=O [Levetiracetam] | reduced these epileptiform responses | ≥ 170 mg/kg | > 1700 mg/kg | protected against the expression of clonic convulsions | reduces epileptiform responses | – | – | – | – | – | – | – | –
2 | CC[C@@H](C(N)=O)N1C[C@H](C=C(F)F)CC1=O [Seletracetam, (2S)-2-[(4S)-4-(2,2-difluorovinyl)-2-oxo-pyrrolidin-1-yl]butanamide] | – | – | – | – | – | effective in the treatment of epilepsy | – | – | – | – | – | – | –
3 | CCC[C@@H]1CC(=O)N([C@@H](CC)C(N)=O)C1 [Brivaracetam, (2S)-2-[(4R)-2-oxo-4-propyl-pyrrolidin-1-yl] butanamide] | reduced these epileptiform responses | ≥ 21.2 mg/kg | 212.3 mg/kg | protected against the expression of clonic convulsions | – | effective in the treatment of epilepsy | reduced the rate of this spontaneous bursting | protected against clonic convulsions induced by pentylenetetrazol | ≥ 2.1 mg/kg | 67.9 mg/kg | persistent reduction in the incidence of generalized motor seizures | significant reduction in the incidence of generalized motor seizures | effective in the treatment of patients with post-herpetic neuralgia
